Reference: patent US20060223837A1 (priority 2005, published 2006)

Assays:
human VR1 [1] = molecular target: T1, human VR1 (Homo sapiens, UniProt Q8NER1); assay: Human VR1 functional assay (FLIPR intracellular Ca2+); assay type: cell-based; settings: for h % I (10 μM) / inhibition at 10 µM: inhibition of capsaicin response; for Emax at 12 µM: read-out: % Response Relative to EC80 of Capsaicin (12 μM); for inhibition at 10 µM: read-out: h % I (10 μM)
T1 construct: expressed in transfected cells; host or cells: HEK293
Protocol: The functional activity of the test compounds was determined by measuring changes in intracellular calcium concentration using a Ca^2+-sensitive fluorescent dye and FLIPR™ technology. Increases in Ca^2+ concentration were readily detected upon challenge with capsaicin. HEK293 Cells expressing human VR1 were grown on poly-D-lysine coated 384 well black-walled plates (BD 354663) and 1 day later loaded with Calcium 3 Dye for 35 min at 37 C, 5% CO2 and then for 25 min at room temperature, and subsequently tested for agonist-induced increases in intracellular Ca^2+ levels using FLIPR™ technology. Cells were challenged with test compounds (at varying concentrations, which are indicated in parentheses in the heading of the table below) and intracellular Ca^2+ was measured for 5 min prior to the addition of capsaicin to all wells to achieve a final concentration of eliciting an approximate 80% maximal response ([…]). EC50 or IC50 values were determined from dose-response studies. Curves were generated using the average of quadruplicate wells for each data point.

human VR1 [2] = molecular target: T1, human VR1; assay: Human VR1 [3H]RTX binding assay; settings: for h Binding % I (1 μM) / inhibition at 1 µM: inhibition of [3H]RTX binding at 1 μM; for Ki: [3H]RTX binding, HEK293 membranes; for inhibition at 1 µM: read-out: h Binding % I (1 μM)
Protocol: Compounds of the present invention were tested for their ability to inhibit the binding of tritiated resiniferatoxin ([^3H] RTX) to human VR1 receptors in a [^3H] RTX binding assay, as previously described (Zhang, Sui-Po. Improved ligand binding assays for vanilloid receptors. PCT Int. Appl. (2002), WO 0233411 A1 20020425 AN 2002:315209; Grant, Elfrida R., Dubin, Adrienne E., Zhang, Sui-Po, Zivin, Robert A., Zhong, Zhong Simultaneous intracellular calcium and sodium flux imaging in human VR1-transfected human embryonic kidney cells: a method to resolve ionic dependence of VR1-mediated cell death. J. Pharmacol. Exp. ther., 2002, 300(1), 9-17.) HEK293 cells were transfected with human VR1 and washed with Hank's balanced Salt Solution, dissociated with cell dissociation buffer (Sigma), and then centrifuged at 1000× g for 5 min. Cell pellets were homogenized in cold 20 mM HEPES buffer (pH 7.4), containing 5.8 mM NaCl, 320 mM sucrose, 2 mM MgCl2, 0.75 CaCl2 and 5 mM KCl and centrifuged at 1000× g for 15 min. The resultant supernate was then centrifuged at 40000× g for 15 min. The pelleted membranes were stored in a freezer at −80 C.
Approximately 120 μg protein/ml from membranes were incubated with indicated concentrations of [^3H]RTX in 0.5 ml of the HEPES buffer (pH 7.4) containing 0.25 mg/mL fatty acid-free bovine serum albumin at 37 C for 60 min. After cooling the reaction mixture to 4 C, 0.1 mg (x-acid glycoprotein was added to each sample, which was incubated at 4 C for 15 min and then centrifuged at 18500× g for 15 min. The tip of the microcentrifuge tube containing the pellet was cut off. Bound radioactivity was quantified by scintillation counting. Non-specific binding was assessed in the presence of 200 nM unlabeled resiniferatoxin.
Data were calculated according to the equation: % inhibtion=(total binding−binding)*100/(total binding−non specific binding).
Ki values were calculated based on an average of duplicate measurements using a GraphPad Prism program.

T1 sequence (Q8NER1 whole entry): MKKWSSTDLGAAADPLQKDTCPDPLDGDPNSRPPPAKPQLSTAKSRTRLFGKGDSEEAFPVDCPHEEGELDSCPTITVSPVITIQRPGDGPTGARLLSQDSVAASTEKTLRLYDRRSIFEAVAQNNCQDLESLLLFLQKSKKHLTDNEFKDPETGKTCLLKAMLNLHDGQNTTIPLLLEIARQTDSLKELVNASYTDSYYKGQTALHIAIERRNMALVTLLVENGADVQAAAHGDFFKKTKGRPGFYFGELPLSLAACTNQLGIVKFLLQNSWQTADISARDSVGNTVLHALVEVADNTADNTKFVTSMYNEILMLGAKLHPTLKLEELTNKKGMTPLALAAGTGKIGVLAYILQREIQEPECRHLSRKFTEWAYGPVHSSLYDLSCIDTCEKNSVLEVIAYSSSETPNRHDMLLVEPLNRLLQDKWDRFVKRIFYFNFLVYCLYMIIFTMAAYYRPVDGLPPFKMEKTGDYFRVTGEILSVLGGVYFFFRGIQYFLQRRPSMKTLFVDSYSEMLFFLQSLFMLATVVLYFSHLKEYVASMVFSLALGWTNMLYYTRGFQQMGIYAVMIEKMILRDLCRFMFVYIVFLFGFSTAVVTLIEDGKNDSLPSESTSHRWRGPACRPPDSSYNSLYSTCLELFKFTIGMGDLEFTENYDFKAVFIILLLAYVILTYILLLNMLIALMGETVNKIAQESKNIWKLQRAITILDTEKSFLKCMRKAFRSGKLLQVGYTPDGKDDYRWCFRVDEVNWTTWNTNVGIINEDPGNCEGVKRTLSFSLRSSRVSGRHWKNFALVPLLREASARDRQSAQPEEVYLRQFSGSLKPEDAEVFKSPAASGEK

Structure (SMILES)	h % I (10 μM) (human VR1 [1]) [%]	h Binding % I (1 μM) (human VR1 [2]) [%]	Ki (human VR1 [2]) [nM]	inhibition at 1 µM (human VR1 [2]) [%]	also measured
CC(C)(C)c1ccc(CCC(=O)Nc2ccccc2-c2ccc(O)cc2)cc1 [Cpd 1]	45	1	–	–	–
CC(C)(C)c1ccc(CCC(=O)Nc2cccc(-c3ccc(O)cc3)c2)cc1 [Cpd 2]	41	11	–	–	–
CC(C)(C)c1ccc(CCC(=O)Nc2ccc(-c3ccc(O)cc3)cc2)cc1 [Cpd 3]	–	–	51	90	Emax at 12 µM (human VR1 [1]; agonist response): 65%; inhibition at 10 µM (human VR1 [1]): 44%
CC(C)(C)c1ccc(CCC(=O)Nc2ccccc2-c2cccc(O)c2)cc1 [Cpd 4]	35	1	–	–	–
CC(C)(C)c1ccc(CCC(=O)Nc2cccc(-c3cccc(O)c3)c2)cc1 [Cpd 5]	35	4	–	–	–
CC(C)(C)c1ccc(CCC(=O)Nc2ccc(-c3cccc(O)c3)cc2)cc1 [Cpd 6, 3-(4-tert-butyl-phenyl)-N-(3′-hydroxy-biphenyl-4-yl)-propionamide]	–	–	86	67	Emax at 12 µM (human VR1 [1]; agonist response): 24%
CC(C)(C)c1ccc(CCC(=O)Nc2cccc(-c3ccccc3O)c2)cc1 [Cpd 9]	16	1	–	–	–
CC(C)(C)c1ccc(CCC(=O)Nc2ccc(-c3ccccc3O)cc2)cc1 [Cpd 10]	40	89	50	–	% Response Relative to EC80 of Capsaicin (12 μM) (human VR1 [1]; agonist response): 67%
CC(C)(C)c1ccc(CCC(=O)Nc2ccc(-c3cccc([N+](=O)[O-])c3)cc2)cc1 [Cpd 11]	–	–	145	84	inhibition at 10 µM (human VR1 [1]): 36%
CC(C)(C)c1ccc(CCC(=O)Nc2ccc(-c3cccc(C(F)(F)F)c3)cc2)cc1 [Cpd 12]	–	36	–	–	% Response Relative to EC80 of Capsaicin (12 μM) (human VR1 [1]; agonist response): 47%
CC(=O)c1cccc(-c2ccc(NC(=O)CCc3ccc(C(C)(C)C)cc3)cc2)c1 [Cpd 13]	35	35	–	–	–
CC(C)(C)c1ccc(CCC(=O)Nc2ccc(-c3cccc(Cl)c3)cc2)cc1 [Cpd 14]	–	–	4620	55	Emax at 12 µM (human VR1 [1]; agonist response): 53%
CC(C)(C)c1ccc(CCC(=O)Nc2ccc(-c3cccc(F)c3)cc2)cc1 [Cpd 15]	–	41	–	–	% Response Relative to EC80 of Capsaicin (12 μM) (human VR1 [1]; agonist response): 80%
CC(=O)Nc1cccc(-c2ccc(NC(=O)CCc3ccc(C(C)(C)C)cc3)cc2)c1 [Cpd 16]	–	–	169	68	Emax at 6 µM (human VR1 [1]; agonist response, 6 μM, read-out: % Response Relative to EC80 of Capsaicin (6 μM)): 63%; Emax at 12 µM (human VR1 [1]; agonist response): 101%
CC(C)(C)c1ccc(CCC(=O)Nc2ccc(-c3cccc(N)c3)cc2)cc1 [Cpd 17]	–	–	48	90	Emax at 12 µM (human VR1 [1]; agonist response): 67%
CC(C)(C)c1ccc(CCC(=O)Nc2ccccc2-c2cccc(CO)c2)cc1 [Cpd 19]	20	1	–	–	–
CC(C)(C)c1ccc(CCC(=O)Nc2ccccc2-c2ccc(CO)cc2)cc1 [Cpd 20]	–	–	–	1	IC50 (human VR1 [1]; antagonism of capsaicin-induced Ca2+ increase, read-out: h IC50): 2080 nM; inhibition at 10 µM (human VR1 [1]): 70%
CC(C)(C)c1ccc(CCC(=O)Nc2cccc(-c3cccc(CO)c3)c2)cc1 [Cpd 21]	–	1	–	–	% Response Relative to EC80 of Capsaicin (12 μM) (human VR1 [1]; agonist response): 45%
CC(C)(C)c1ccc(CCC(=O)Nc2cccc(-c3ccc(CO)cc3)c2)cc1 [Cpd 22]	1	1	–	–	–
CC(C)(C)c1ccc(CCC(=O)Nc2ccc(-c3ccc(CO)cc3)cc2)cc1 [Cpd 24]	–	–	84	87	Emax at 12 µM (human VR1 [1]; agonist response): 68%; inhibition at 10 µM (human VR1 [1]): 32%
CC(C)(C)c1ccc(CCC(=O)Nc2ccc(-c3cccc(OC(F)(F)F)c3)cc2)cc1 [Cpd 26]	–	10	–	–	% Response Relative to EC80 of Capsaicin (12 μM) (human VR1 [1]; agonist response): 65%
Cc1cccc(-c2ccc(NC(=O)CCc3ccc(C(C)(C)C)cc3)cc2)c1 [Cpd 28]	–	48	–	–	% Response Relative to EC80 of Capsaicin (12 μM) (human VR1 [1]; agonist response): 81%
CNC(=O)c1cccc(-c2ccc(NC(=O)CCc3ccc(C(C)(C)C)cc3)c(C(=O)O)c2)c1 [Cpd 67]	–	1	–	–	–
CC(C)(C)c1ccc(CCC(=O)Nc2ccc(-c3cccc(O)c3)cc2C(=O)O)cc1 [Cpd 68]	–	1	–	–	–
CC(C)(C)c1ccc(CCC(=O)Nc2cccc(-c3cccnc3)c2)cc1 [Cpd 106]	–	1	–	–	–
CC(C)(C)c1ccc(CCC(=O)Nc2ccc(-c3ccccn3)cc2)cc1 [Cpd 110]	–	–	11.3	97	–
